In paper PMC9219824, “Antiplasmodial Cyclodecapeptides from Tyrothricin Share a Target with Chloroquine” (Antibiotics, 2022):
Where two headings read alike, the source gives them in different places. Square brackets hold non-standard residues; d marks the D form. Peptide text beside a SMILES is read from it. Orn = NCCC[C@H](N)C(=O)O

Assays:
CQR P. falciparum Dd2 = assay: microbe, parasite or virus in culture; format: cell-based, Plasmodium falciparum; conditions: for IC50: read-out: IC50, CQR P. falciparum Dd2; for Resistance Index IC50Dd2/IC503D7: first value of cell; for Resistance Index IC50Dd2/IC50D10: second value of cell
Experimental: (§1) The antimalarial assays were carried out according to the method of Nkhoma et al.. […] On the day of the assay, the parasitemia was determined following observation by light microscopy after Giemsa staining of a thin blood smear from the culture. The cultures at young trophozoite stage were diluted to 2% parasitemia and 2% hematocrit by addition of fresh RPMI medium and uninfected erythrocytes. This culture suspension was distributed in 96-well culture plates at 90 µL/well. […] Peptide solvent and medium (10 µL/well) was used as sterility control and in growth control and 10 μL 1.0 mM GS was used as positive control. Assays were carried out in at least three biological repeats each consisting of three technical repeats to ascertain reproducibility.
(§2) The culture suspension was frozen away at −20 °C until determination of the residual lactate dehydrogenase activity of the parasites by the Malstat assay, as adapted from Gomez et al..
(§3) For the Malstat assay, the plates were transferred to −80 °C for 1 h following overnight storage at −20 °C to ensure that all the suspensions in each well of the 96-well plate were frozen. The plates were then thawed at room temperature. The Malstat reagent consisted of 200 μL Triton X-100, 2 g L-lactic acid (substrate), 0.66 g Tris-HCl buffer and 0.011 g of 3-acetylpyridine adenine dinucleotide (APAD) (coenzyme for parasite lactate dehydrogenase) in 100 mL analytical quality water set to a pH of 9.0 [93]. […] A 15 µL aliquot of the thawed and properly mixed suspension from the assay plates was added to 100 µL of the Malstat reagent, followed by addition of 25 µL of the NBT/PES solution. The reaction mixtures were then incubated at room temperature in the dark for 30 min followed by spectrophotometric measurement of the absorbance of the reduced APAD at 620 nm using a Model 680 Microplate reader from BioRad.
(§4) The data obtained from spectrophotometric measurement of the plates following the lactate dehydrogenase (Malstat) assay were converted to percentage growth inhibition using the data analysis method described by Rautenbach et al.. The background was obtained from control wells in which the parasites were killed with 100 µM GS while total growth was from the wells that were not submitted to peptides. […] The percentage COS-1 cell death (CellTiter Blue™ assay) was similarly calculated from absorbance values.

CQS P. falciparum 3D7 = assay: microbe, parasite or virus in culture; format: cell-based, Plasmodium falciparum
Experimental: as §1, §2, §3, §4

CQI P. falciparum D10 = assay: microbe, parasite or virus in culture; format: cell-based, Plasmodium falciparum; conditions: for IC50: 48 h, Malstat, ± SEM
Experimental: The antimalarial assays were carried out according to the method of Nkhoma et al.. Once the cultures reached a parasitemia of 5–15%, they were synchronized four days prior to the day of the assay as described above which allowed the cultures to recover from the stress caused by the D-sorbitol. On the day of the assay, the parasitemia was determined following observation by light microscopy after Giemsa staining of a thin blood smear from the culture. The cultures at young trophozoite stage were diluted to 2% parasitemia and 2% hematocrit by addition of fresh RPMI medium and uninfected erythrocytes. This culture suspension was distributed in 96-well culture plates at 90 µL/well. The peptides and CQ diluted in culture medium lacking albumax II were added to the cultures in triplicate at 10 µL/well to give a total volume of 100 µL/well. Peptide solvent and medium (10 µL/well) was used as sterility control and in growth control and 10 μL 1.0 mM GS was used as positive control. Assays were carried out in at least three biological repeats each consisting of three technical repeats to ascertain reproducibility.
For the activity determination against parasites, plates were incubated at 37 °C for 48 h under an atmosphere of 3% CO2, 4% O2 and 93% N2. The culture suspension was frozen away at −20 °C until determination of the residual lactate dehydrogenase activity of the parasites by the Malstat assay, as adapted from Gomez et al..
For the Malstat assay, the plates were transferred to −80 °C for 1 h following overnight storage at −20 °C to ensure that all the suspensions in each well of the 96-well plate were frozen. The plates were then thawed at room temperature. The Malstat reagent consisted of 200 μL Triton X-100, 2 g L-lactic acid (substrate), 0.66 g Tris-HCl buffer and 0.011 g of 3-acetylpyridine adenine dinucleotide (APAD) (coenzyme for parasite lactate dehydrogenase) in 100 mL analytical quality water set to a pH of 9.0 [93]. The lactate dehydrogenase reaction was initiated by addition of a second solution, NBT/PES solution composed of 1.96 mM nitro blue tetrazolium (NBT) and 0.24 mM phenazine ethosulfate (PES) which was always protected from light. A 15 µL aliquot of the thawed and properly mixed suspension from the assay plates was added to 100 µL of the Malstat reagent, followed by addition of 25 µL of the NBT/PES solution. The reaction mixtures were then incubated at room temperature in the dark for 30 min followed by spectrophotometric measurement of the absorbance of the reduced APAD at 620 nm using a Model 680 Microplate reader from BioRad.
(§5) The data obtained from spectrophotometric measurement of the plates following the lactate dehydrogenase (Malstat) assay were converted to percentage growth inhibition using the data analysis method described by Rautenbach et al.. The background was obtained from control wells in which the parasites were killed with 100 µM GS while total growth was from the wells that were not submitted to peptides. The background for the hemolysis evaluation was from wells in which the uninfected erythrocytes were lysed using 100 µM GS while growth control was from the wells with uninfected erythrocytes that received no peptides. The percentage COS-1 cell death (CellTiter Blue™ assay) was similarly calculated from absorbance values. All the dose–response assay data were evaluated using GraphPad Prism 4.03 (GraphPad Software, San Diego, CA, USA) followed by non-linear regression and sigmoidal curves were fitted (having variable slope and a constant difference of 100 between the top and bottom plateau). Following calculation of the 50% P. falciparum inhibitory concentration (IC50), 50% hemolytic concentration (HC50) and 50% lethal concentration (LC50) for COS-1 cells.

[1] = Toxicity to COS-1 cells, CellTiter Blue viability; format: cell-based; conditions: 24 h, resazurin (CellTiter Blue), read-out: Toxicity LC50, COS Cells
Experimental: COS-1 cells were cultured in DMEM containing 0.9 g/L glucose, 0.12% NaHCO3, 10% fetal calf serum and 1% penicillin–streptomycin at 37 °C and under an atmosphere of 5% CO2 [95]. Twenty hours before the assay, the cells were transferred to 96-well plates at a density of 1.5 × 10^4 cells/well. The peptides from the dilution series were added to each well and incubated for 24 h. The cell viability was measured by adding 20 μL/well resazurin reagent (CellTiter Blue™), followed by four hours incubation at room temperature in the dark and measurement of the absorbance at 560 nm and 600 nm in the BioRad microplate reader.
as §5

human erythrocytes = assay: Hemolytic activity; format: cell-based; conditions: 2% hematocrit, 1 h at 37 °C, ± SEM
Experimental: To determine the hemolytic activity of the peptides, the duplicate 96-well plates with samples added to 90 μL 2% hematocrit per well were incubated for one hour at 37 °C and centrifuged using a swing-out rotor at 200× g for 3 min. The supernatant was diluted 1:8 in analytical quality water in separate 96-well plates and after mixing, the absorbance of the suspension was determined at 405 nm.
as §5

Row | SMILES | IC50 (CQR P. falciparum Dd2; Plasmodium falciparum, DD2, 48 h) | Resistance Index IC50Dd2/IC503D7 (CQR P. falciparum Dd2) | Resistance Index IC50Dd2/IC50D10 (CQR P. falciparum Dd2) | IC50 (CQS P. falciparum 3D7; Plasmodium falciparum, 3D7, 48 h, read-out: IC50, CQS P. falciparum 3D7) | IC50 (CQI P. falciparum D10; Plasmodium falciparum, D10) | CC50 [1] | HC50, Erythrocytes (human erythrocytes) | IC50 (CQR P. falciparum Dd2; 48 h, Malstat, ± SEM) | IC50 (CQS P. falciparum 3D7; CQS 3D7, 48 h) | IC50 (CQI P. falciparum D10) | Selectivity Index IC50D10/IC50 (COS cells) (CQI P. falciparum D10; second value of cell)
1 | CCN(CC)CCCC(C)Nc1ccnc2cc(Cl)ccc12 (stereo not shown) [CQ, chloroquine] | 0.277 ± 0.018 µM | 16 | 7 | 0.017 ± 0.005 µM | 0.04 ± 0.003 µM |  |  |  |  |  | 
2 | CC(C)C[C@@H]1NC(=O)[C@H](CCCN)NC(=O)[C@H](C(C)C)NC(=O)[C@@H]2CCCN2C(=O)[C@@H](Cc2ccccc2)NC(=O)[C@H](CC(C)C)NC(=O)[C@H](CCCN)NC(=O)[C@H](C(C)C)NC(=O)[C@@H]2CCCN2C(=O)[C@@H](Cc2ccccc2)NC1=O [GS, gramicidin S, reference compound] (cyclo(V[Orn]L[dF]PV[Orn]L[dF]P)) |  | 1.3; 1.3 | 1.3; 1.3 |  |  | 9 µM | 6.2 ± 0.4 (9) μM | 1.86 ± 0.16 µM | 1.45 ± 0.151 µM | 1.4 ± 0.086 µM | 6
